Measurements published in PubChem BioAssay AID2060508 (Molecular Pharmacology Branch, DTP, NCI, 2025).

Tested on: 454973-116-R2-J3-PDC spheroids, viability, % test/control
Assay: Anticancer human tumor 454973-116-R2-J3-PDC patient-derived pancreatic carcinoma cell line growth inhibition [GQUAD]
Settings: second compound 0.0316 µM; first compound 3.16 µM; hits give low values; spheroids with HUVEC and MSC
Outline: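 Tumor cells were grown as complex spheroids with HUVEC endothelial cells and mesenchymal stem cells as stroma. G-quadruplex stabilizers were combined with targeted agents over half-log dilutions from near the clinical Cmax, or from 10 microM.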
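Note: spheroids exposed to compounds for seven days; 100% = DMSO vehicle control viability.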

| SMILES | viability, T/C [%] |
| --- | --- |
| C=CC(=O)N1CCN(c2nc(=O)n(-c3c(C)ccnc3C(C)C)c3nc(-c4c(O)cccc4F)c(F)cc23)C(C)C1 (stereo unspecified) + Cc1[nH]c2ccc(F)cc2c1-c1nc2c3cccnc3c3ncccc3c2[nH]1 | 113 |
| COc1cc(C2c3cc4c(cc3C(OC3OC5COC(C)OC5C(O)C3O)C3COC(=O)C23)OCO4)cc(OC)c1O (stereo unspecified) + Cc1[nH]c2ccc(F)cc2c1-c1nc2c3cccnc3c3ncccc3c2[nH]1 | 22.7 |
| COc1cccc2c1C(=O)c1c(O)c3c(c(O)c1C2=O)CC(O)(C(=O)CO)CC3OC1CC(N)C(O)C(C)O1 (stereo unspecified) + Cc1[nH]c2ccc(F)cc2c1-c1nc2c3cccnc3c3ncccc3c2[nH]1 | 11.4 |
| Cc1cccc(N(C)C(=O)C2C(O)CCN2c2nc(C)cc(C(F)(F)F)c2C#N)c1 (stereo unspecified) + Cc1[nH]c2ccc(F)cc2c1-c1nc2c3cccnc3c3ncccc3c2[nH]1 | 108 |

Same assay, conditions: second compound 0.0316 µM; first compound 10 µM; hits give low values; spheroids with HUVEC and MSC

| SMILES | viability, T/C [%] |
| --- | --- |
| C=CC(=O)N1CCN(c2nc(=O)n(-c3c(C)ccnc3C(C)C)c3nc(-c4c(O)cccc4F)c(F)cc23)C(C)C1 (stereo unspecified) + Cc1[nH]c2ccc(F)cc2c1-c1nc2c3cccnc3c3ncccc3c2[nH]1 | 114 |
| COc1cc(C2c3cc4c(cc3C(OC3OC5COC(C)OC5C(O)C3O)C3COC(=O)C23)OCO4)cc(OC)c1O (stereo unspecified) + Cc1[nH]c2ccc(F)cc2c1-c1nc2c3cccnc3c3ncccc3c2[nH]1 | 13.3 |
| COc1cccc2c1C(=O)c1c(O)c3c(c(O)c1C2=O)CC(O)(C(=O)CO)CC3OC1CC(N)C(O)C(C)O1 (stereo unspecified) + Cc1[nH]c2ccc(F)cc2c1-c1nc2c3cccnc3c3ncccc3c2[nH]1 | 0.63 |
| Cc1cccc(N(C)C(=O)C2C(O)CCN2c2nc(C)cc(C(F)(F)F)c2C#N)c1 (stereo unspecified) + Cc1[nH]c2ccc(F)cc2c1-c1nc2c3cccnc3c3ncccc3c2[nH]1 | 98 |

Same assay, conditions: second compound 0.1 µM; first compound 0.000999 µM; hits give low values; spheroids with HUVEC and MSC

| SMILES | viability, T/C [%] |
| --- | --- |
| CCc1c2c(nc3ccc(O)cc13)-c1cc3c(c(=O)n1C2)COC(=O)[C@]3(O)CC + Cc1[nH]c2ccc(F)cc2c1-c1nc2c3cccnc3c3ncccc3c2[nH]1 | 63.1 |

Same assay, conditions: second compound 0.1 µM; first compound 0.00316 µM; hits give low values; spheroids with HUVEC and MSC

| SMILES | viability, T/C [%] |
| --- | --- |
| CCc1c2c(nc3ccc(O)cc13)-c1cc3c(c(=O)n1C2)COC(=O)[C@]3(O)CC + Cc1[nH]c2ccc(F)cc2c1-c1nc2c3cccnc3c3ncccc3c2[nH]1 | 21.8 |

Same assay, conditions: second compound 0.1 µM; first compound 0.00999 µM; hits give low values; spheroids with HUVEC and MSC

| SMILES | viability, T/C [%] |
| --- | --- |
| CCc1c2c(nc3ccc(O)cc13)-c1cc3c(c(=O)n1C2)COC(=O)[C@]3(O)CC + Cc1[nH]c2ccc(F)cc2c1-c1nc2c3cccnc3c3ncccc3c2[nH]1 | 19.9 |

Same assay, conditions: second compound 0.1 µM; first compound 0.0316 µM; hits give low values; spheroids with HUVEC and MSC

| SMILES | viability, T/C [%] |
| --- | --- |
| C=CC(=O)N1CCN(c2nc(=O)n(-c3c(C)ccnc3C(C)C)c3nc(-c4c(O)cccc4F)c(F)cc23)C(C)C1 (stereo unspecified) + Cc1[nH]c2ccc(F)cc2c1-c1nc2c3cccnc3c3ncccc3c2[nH]1 | 100 |
| CCc1c2c(nc3ccc(O)cc13)-c1cc3c(c(=O)n1C2)COC(=O)[C@]3(O)CC + Cc1[nH]c2ccc(F)cc2c1-c1nc2c3cccnc3c3ncccc3c2[nH]1 | 13 |
| COc1cc(C2c3cc4c(cc3C(OC3OC5COC(C)OC5C(O)C3O)C3COC(=O)C23)OCO4)cc(OC)c1O (stereo unspecified) + Cc1[nH]c2ccc(F)cc2c1-c1nc2c3cccnc3c3ncccc3c2[nH]1 | 103 |
| COc1cccc2c1C(=O)c1c(O)c3c(c(O)c1C2=O)CC(O)(C(=O)CO)CC3OC1CC(N)C(O)C(C)O1 (stereo unspecified) + Cc1[nH]c2ccc(F)cc2c1-c1nc2c3cccnc3c3ncccc3c2[nH]1 | 97.8 |
| Cc1cccc(N(C)C(=O)C2C(O)CCN2c2nc(C)cc(C(F)(F)F)c2C#N)c1 (stereo unspecified) + Cc1[nH]c2ccc(F)cc2c1-c1nc2c3cccnc3c3ncccc3c2[nH]1 | 102 |

Same assay, conditions: second compound 0.1 µM; first compound 0.0999 µM; hits give low values; spheroids with HUVEC and MSC

| SMILES | viability, T/C [%] |
| --- | --- |
| CCc1c2c(nc3ccc(O)cc13)-c1cc3c(c(=O)n1C2)COC(=O)[C@]3(O)CC + Cc1[nH]c2ccc(F)cc2c1-c1nc2c3cccnc3c3ncccc3c2[nH]1 | 8.7 |

Same assay, conditions: second compound 0.1 µM; first compound 0.1 µM; hits give low values; spheroids with HUVEC and MSC

| SMILES | viability, T/C [%] |
| --- | --- |
| C=CC(=O)N1CCN(c2nc(=O)n(-c3c(C)ccnc3C(C)C)c3nc(-c4c(O)cccc4F)c(F)cc23)C(C)C1 (stereo unspecified) + Cc1[nH]c2ccc(F)cc2c1-c1nc2c3cccnc3c3ncccc3c2[nH]1 | 102 |
| COc1cc(C2c3cc4c(cc3C(OC3OC5COC(C)OC5C(O)C3O)C3COC(=O)C23)OCO4)cc(OC)c1O (stereo unspecified) + Cc1[nH]c2ccc(F)cc2c1-c1nc2c3cccnc3c3ncccc3c2[nH]1 | 92.3 |
| COc1cccc2c1C(=O)c1c(O)c3c(c(O)c1C2=O)CC(O)(C(=O)CO)CC3OC1CC(N)C(O)C(C)O1 (stereo unspecified) + Cc1[nH]c2ccc(F)cc2c1-c1nc2c3cccnc3c3ncccc3c2[nH]1 | 69.8 |
| Cc1cccc(N(C)C(=O)C2C(O)CCN2c2nc(C)cc(C(F)(F)F)c2C#N)c1 (stereo unspecified) + Cc1[nH]c2ccc(F)cc2c1-c1nc2c3cccnc3c3ncccc3c2[nH]1 | 100 |

Same assay, conditions: second compound 0.1 µM; first compound 0.316 µM; hits give low values; spheroids with HUVEC and MSC

| SMILES | viability, T/C [%] |
| --- | --- |
| C=CC(=O)N1CCN(c2nc(=O)n(-c3c(C)ccnc3C(C)C)c3nc(-c4c(O)cccc4F)c(F)cc23)C(C)C1 (stereo unspecified) + Cc1[nH]c2ccc(F)cc2c1-c1nc2c3cccnc3c3ncccc3c2[nH]1 | 114 |
| CCc1c2c(nc3ccc(O)cc13)-c1cc3c(c(=O)n1C2)COC(=O)[C@]3(O)CC + Cc1[nH]c2ccc(F)cc2c1-c1nc2c3cccnc3c3ncccc3c2[nH]1 | 3.86 |
| COc1cc(C2c3cc4c(cc3C(OC3OC5COC(C)OC5C(O)C3O)C3COC(=O)C23)OCO4)cc(OC)c1O (stereo unspecified) + Cc1[nH]c2ccc(F)cc2c1-c1nc2c3cccnc3c3ncccc3c2[nH]1 | 88 |
| COc1cccc2c1C(=O)c1c(O)c3c(c(O)c1C2=O)CC(O)(C(=O)CO)CC3OC1CC(N)C(O)C(C)O1 (stereo unspecified) + Cc1[nH]c2ccc(F)cc2c1-c1nc2c3cccnc3c3ncccc3c2[nH]1 | 27.2 |
| Cc1cccc(N(C)C(=O)C2C(O)CCN2c2nc(C)cc(C(F)(F)F)c2C#N)c1 (stereo unspecified) + Cc1[nH]c2ccc(F)cc2c1-c1nc2c3cccnc3c3ncccc3c2[nH]1 | 103 |
